Test results published in ChEMBL document CHEMBL1201862, “PubChem BioAssay data set” (2004).
“And” between values parts separate entries of the source, which are not always exact repeats. Identical values can stand only once. The source made the active and inactive calls.

Tests used:
[1] = inhibition of Env-driven cell fusion – HIV entry, plate reader, dry powder, dose response (AID 687023); assay type: functional, cell-based
[2] = viability loss in CEM21 cells – cell-based, plate reader, dry powder, cytotoxicity control, dose response (AID 687026); assay type: functional
[3] = biological target: Delta-type opioid receptor (Homo sapiens, UniProt P41143); test: Late-stage results from the probe development effort to identify antagonists of OPRK1: fluorescence-based cell-based dose response OPRD1 counterscreen.; assay type: functional
[4] = biological target: Mu-type opioid receptor (Homo sapiens, UniProt P35372); test: Late-stage results from the probe development effort to identify antagonists of OPRK1: luminescence-based cell-based dose response OPRM1 counterscreen.; assay type: functional
Sequence of Mu-type opioid receptor (P35372 whole entry): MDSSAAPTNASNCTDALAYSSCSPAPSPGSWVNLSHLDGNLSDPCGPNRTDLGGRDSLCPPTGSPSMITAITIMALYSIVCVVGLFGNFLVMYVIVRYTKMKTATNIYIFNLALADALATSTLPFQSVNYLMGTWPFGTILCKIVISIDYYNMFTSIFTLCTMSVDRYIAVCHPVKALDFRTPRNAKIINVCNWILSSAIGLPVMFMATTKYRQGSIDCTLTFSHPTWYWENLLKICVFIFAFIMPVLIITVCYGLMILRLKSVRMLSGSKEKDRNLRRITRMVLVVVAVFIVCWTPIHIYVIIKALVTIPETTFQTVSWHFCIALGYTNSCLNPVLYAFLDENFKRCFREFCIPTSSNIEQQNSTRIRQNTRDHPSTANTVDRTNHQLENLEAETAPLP

[5] = ATP-based viability loss in HepG2 cells – cell-based, CellTiter-Glo luminescence, dry powder, set 3, cytotoxicity control, dose response (AID 720594); assay type: functional
[6] = ATP-based viability loss in HeLa cells – cell-based, CellTiter-Glo luminescence, dry powder, set 2, cytotoxicity control, dose response (AID 720593); assay type: functional
[7] = biological target: 1-phosphatidylinositol 4,5-bisphosphate phosphodiesterase beta-3 (Homo sapiens, UniProt Q01970); test: Fluorescence-based biochemical high throughput dose response assay to identify inhibitors of phospholipase C isozymes (PLC-B3).
Sequence of 1-phosphatidylinositol 4,5-bisphosphate phosphodiesterase beta-3 (Q01970 whole entry): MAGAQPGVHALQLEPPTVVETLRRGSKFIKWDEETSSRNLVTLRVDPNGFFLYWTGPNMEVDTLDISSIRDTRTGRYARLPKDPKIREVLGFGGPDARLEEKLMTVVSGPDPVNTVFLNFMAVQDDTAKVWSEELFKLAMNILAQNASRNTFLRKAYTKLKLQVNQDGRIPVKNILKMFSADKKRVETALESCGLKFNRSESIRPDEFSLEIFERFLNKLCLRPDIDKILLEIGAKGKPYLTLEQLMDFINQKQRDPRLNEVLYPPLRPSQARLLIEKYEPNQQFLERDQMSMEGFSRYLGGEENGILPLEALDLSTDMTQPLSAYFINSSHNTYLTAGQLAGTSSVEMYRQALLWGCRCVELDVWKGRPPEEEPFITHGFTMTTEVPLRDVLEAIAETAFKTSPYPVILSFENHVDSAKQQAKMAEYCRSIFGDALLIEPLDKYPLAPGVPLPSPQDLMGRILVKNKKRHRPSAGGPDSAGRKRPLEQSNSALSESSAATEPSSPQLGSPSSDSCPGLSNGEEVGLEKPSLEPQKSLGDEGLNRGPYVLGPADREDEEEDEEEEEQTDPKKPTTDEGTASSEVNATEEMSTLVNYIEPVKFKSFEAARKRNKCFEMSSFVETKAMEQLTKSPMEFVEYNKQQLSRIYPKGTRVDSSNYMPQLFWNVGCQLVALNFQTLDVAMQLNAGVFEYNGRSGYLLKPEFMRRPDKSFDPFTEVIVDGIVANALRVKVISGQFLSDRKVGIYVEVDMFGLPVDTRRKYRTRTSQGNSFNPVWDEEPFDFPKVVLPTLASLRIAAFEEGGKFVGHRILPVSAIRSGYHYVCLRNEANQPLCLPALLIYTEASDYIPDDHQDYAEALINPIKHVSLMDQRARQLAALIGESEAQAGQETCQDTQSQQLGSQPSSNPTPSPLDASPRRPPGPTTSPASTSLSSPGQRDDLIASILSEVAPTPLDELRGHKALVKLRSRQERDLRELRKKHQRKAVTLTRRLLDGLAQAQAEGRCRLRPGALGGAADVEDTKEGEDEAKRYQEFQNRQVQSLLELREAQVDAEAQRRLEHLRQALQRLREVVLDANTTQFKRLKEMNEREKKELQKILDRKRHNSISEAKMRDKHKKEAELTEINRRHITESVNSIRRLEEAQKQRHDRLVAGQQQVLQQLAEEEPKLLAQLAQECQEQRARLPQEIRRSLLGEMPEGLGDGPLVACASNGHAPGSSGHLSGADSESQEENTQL

[8] = potency of ADAM10 substrate cleavage blockers – biochemical, QFRET, dose response (AID 743254);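 further: ADAM10 enzyme with the DM2 quenched FRET peptide as substrate; EDANS fluorescence gain as the protease cuts the substrate; inhibitor potency against ADAM10 proteolytic activity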
[9] = biological target: Disintegrin and metalloproteinase domain-containing protein 17 (Homo sapiens, UniProt P78536); test: inhibition of ADAM17 substrate cleavage – biochemical, quenched FRET substrate, counter-screen for ADAM10 exosite inhibitor project, dose response (AID 743253)
Sequence of Disintegrin and metalloproteinase domain-containing protein 17 (P78536 whole entry, the tested form may be a part): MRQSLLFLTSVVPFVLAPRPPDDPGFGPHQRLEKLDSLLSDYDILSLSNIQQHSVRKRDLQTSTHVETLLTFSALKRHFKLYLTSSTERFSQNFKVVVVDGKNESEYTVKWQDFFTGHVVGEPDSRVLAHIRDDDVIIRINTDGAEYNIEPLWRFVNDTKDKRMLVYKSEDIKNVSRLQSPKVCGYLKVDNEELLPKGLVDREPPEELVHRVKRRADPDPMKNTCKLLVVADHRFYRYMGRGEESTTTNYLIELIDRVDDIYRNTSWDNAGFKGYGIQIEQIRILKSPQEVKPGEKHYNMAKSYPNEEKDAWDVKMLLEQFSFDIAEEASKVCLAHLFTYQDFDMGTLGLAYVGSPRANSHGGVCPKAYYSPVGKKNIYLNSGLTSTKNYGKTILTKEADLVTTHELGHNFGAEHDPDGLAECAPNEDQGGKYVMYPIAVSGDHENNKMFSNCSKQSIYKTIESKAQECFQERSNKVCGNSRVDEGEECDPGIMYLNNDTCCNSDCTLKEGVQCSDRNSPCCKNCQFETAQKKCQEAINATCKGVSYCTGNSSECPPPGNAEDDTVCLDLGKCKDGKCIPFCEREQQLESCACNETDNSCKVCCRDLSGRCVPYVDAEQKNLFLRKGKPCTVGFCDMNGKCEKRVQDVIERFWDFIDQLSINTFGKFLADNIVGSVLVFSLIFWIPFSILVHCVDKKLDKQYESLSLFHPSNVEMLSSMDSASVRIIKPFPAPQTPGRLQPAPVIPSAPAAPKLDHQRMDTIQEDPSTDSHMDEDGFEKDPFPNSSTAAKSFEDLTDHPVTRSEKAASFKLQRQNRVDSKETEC

[10] = biological target: 1-phosphatidylinositol 4,5-bisphosphate phosphodiesterase gamma-1 (Homo sapiens, UniProt P19174); test: Counterscreen for inhibitors of phospholipase C isozymes (PLC-B3): Fluorescence-based biochemical high throughput dose response assay to identify inhibitors of phospholipase C isozymes (PLC-gamma1).
Sequence of 1-phosphatidylinositol 4,5-bisphosphate phosphodiesterase gamma-1 (P19174 whole entry): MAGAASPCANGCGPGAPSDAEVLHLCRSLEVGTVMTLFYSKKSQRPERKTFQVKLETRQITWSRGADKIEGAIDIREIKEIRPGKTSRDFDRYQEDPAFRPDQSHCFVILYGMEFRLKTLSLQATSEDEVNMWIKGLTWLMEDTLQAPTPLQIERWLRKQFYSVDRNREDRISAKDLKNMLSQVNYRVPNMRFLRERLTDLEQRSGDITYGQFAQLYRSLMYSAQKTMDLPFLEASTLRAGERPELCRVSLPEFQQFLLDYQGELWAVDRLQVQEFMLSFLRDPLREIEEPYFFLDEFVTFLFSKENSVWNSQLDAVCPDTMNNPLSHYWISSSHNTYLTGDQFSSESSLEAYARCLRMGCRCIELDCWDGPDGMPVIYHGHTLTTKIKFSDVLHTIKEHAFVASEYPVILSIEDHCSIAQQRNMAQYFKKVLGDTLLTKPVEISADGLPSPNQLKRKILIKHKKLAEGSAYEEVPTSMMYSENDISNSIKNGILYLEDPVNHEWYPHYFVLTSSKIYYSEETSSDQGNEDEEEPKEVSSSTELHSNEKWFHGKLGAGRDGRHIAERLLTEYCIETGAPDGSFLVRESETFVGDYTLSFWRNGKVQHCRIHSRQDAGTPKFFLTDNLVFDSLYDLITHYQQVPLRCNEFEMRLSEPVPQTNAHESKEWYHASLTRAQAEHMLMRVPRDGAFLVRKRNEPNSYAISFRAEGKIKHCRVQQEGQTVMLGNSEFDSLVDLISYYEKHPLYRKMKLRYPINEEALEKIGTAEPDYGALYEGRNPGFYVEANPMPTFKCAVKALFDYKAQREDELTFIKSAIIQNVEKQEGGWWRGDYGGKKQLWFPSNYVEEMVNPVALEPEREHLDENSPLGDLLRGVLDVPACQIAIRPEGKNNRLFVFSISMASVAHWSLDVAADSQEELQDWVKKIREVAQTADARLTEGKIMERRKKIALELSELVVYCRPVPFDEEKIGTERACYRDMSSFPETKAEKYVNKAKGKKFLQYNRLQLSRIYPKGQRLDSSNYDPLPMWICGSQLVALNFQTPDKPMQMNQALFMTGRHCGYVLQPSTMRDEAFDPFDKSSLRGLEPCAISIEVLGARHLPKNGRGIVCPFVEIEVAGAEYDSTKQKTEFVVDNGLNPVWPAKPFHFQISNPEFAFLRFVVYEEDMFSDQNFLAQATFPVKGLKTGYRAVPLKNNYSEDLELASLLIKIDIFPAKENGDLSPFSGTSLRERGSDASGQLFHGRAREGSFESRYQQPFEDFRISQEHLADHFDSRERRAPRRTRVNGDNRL

[11] = test system: INS1; test: INS-1E survival protection against cytokine death – cell-based, luminescence, retest, dose response (AID 449756); assay type: functional; conditions: Rattus norvegicus;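 further: cell death triggered by IL-1 beta plus TNF-alpha plus IFN-gamma mixture; protective hits raise ATP signal compared with cytokine alone wells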
[12] = biological target: T1, Replicative DNA helicase DnaB (Mycobacterium tuberculosis, UniProt P9WMR3); test: DnaB intein splicing inhibitors, dose response, biochemical, cell-free fluorescence (AID 449749); assay type: functional
T1 sequence (P9WMR3 whole entry): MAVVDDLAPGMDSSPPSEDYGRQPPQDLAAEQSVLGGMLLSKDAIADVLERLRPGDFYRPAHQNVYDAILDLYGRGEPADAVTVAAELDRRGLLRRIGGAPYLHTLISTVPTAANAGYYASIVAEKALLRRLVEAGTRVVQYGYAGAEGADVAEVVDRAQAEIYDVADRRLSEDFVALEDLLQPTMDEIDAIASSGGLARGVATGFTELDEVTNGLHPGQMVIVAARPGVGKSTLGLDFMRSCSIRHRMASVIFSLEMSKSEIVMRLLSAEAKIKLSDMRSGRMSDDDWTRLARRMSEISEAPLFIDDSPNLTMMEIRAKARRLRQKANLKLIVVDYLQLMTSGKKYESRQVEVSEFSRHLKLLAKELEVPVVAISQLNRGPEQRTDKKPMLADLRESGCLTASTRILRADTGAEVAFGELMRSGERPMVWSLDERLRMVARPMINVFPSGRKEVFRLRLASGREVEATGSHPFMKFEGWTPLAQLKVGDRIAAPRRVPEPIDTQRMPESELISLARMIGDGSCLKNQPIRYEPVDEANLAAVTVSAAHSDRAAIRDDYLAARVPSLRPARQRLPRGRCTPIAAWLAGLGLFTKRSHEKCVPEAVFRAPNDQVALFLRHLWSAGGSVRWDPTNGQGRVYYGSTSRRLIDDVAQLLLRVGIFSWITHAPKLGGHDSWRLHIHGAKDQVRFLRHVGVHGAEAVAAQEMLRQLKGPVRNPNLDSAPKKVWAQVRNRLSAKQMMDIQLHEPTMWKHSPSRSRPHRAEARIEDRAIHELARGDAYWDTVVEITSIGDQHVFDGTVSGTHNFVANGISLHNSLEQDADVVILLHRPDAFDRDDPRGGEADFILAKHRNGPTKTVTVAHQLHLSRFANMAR

[13] = biological target: T2, Protein RecA (Mycobacterium tuberculosis, UniProt P9WHJ3); test: Fluorescence Cell-Free Homogeneous Dose Retest to Identify Inhibitors of RecA-Intein Splicing Activity. [Related pubchem assays (depositor defined):AID2097, AID2223, AID489010, AID492950]; assay type: functional
T2 sequence (P9WHJ3 whole entry): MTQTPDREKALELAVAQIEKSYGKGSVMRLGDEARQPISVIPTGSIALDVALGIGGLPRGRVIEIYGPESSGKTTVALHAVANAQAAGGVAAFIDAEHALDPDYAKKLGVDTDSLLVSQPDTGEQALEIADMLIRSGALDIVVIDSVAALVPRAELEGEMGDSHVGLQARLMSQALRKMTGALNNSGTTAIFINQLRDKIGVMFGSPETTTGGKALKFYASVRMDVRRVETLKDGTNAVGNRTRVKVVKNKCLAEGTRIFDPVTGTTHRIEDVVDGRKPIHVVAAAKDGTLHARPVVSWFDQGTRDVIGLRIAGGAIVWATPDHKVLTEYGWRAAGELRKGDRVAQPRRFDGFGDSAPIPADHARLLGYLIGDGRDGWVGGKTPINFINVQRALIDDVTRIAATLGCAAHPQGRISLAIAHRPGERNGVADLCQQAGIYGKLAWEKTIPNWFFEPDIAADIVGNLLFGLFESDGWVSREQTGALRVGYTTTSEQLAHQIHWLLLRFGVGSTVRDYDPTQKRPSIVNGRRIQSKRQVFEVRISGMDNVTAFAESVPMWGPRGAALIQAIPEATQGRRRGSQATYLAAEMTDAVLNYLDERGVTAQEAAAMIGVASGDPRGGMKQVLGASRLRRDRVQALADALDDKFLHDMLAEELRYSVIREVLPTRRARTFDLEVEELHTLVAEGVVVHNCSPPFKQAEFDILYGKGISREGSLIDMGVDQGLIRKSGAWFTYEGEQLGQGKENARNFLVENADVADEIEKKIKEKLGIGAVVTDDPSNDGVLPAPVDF

[14] = biological target: Lysine-specific demethylase 4C (Homo sapiens, UniProt Q9H3R0); test: inhibition of JMJD2C H3K9me3 demethylation – biochemical, DELFIA europium, cherry-picked samples, dose response (AID 488835); assay type: functional
Sequence of Lysine-specific demethylase 4C (Q9H3R0 whole entry): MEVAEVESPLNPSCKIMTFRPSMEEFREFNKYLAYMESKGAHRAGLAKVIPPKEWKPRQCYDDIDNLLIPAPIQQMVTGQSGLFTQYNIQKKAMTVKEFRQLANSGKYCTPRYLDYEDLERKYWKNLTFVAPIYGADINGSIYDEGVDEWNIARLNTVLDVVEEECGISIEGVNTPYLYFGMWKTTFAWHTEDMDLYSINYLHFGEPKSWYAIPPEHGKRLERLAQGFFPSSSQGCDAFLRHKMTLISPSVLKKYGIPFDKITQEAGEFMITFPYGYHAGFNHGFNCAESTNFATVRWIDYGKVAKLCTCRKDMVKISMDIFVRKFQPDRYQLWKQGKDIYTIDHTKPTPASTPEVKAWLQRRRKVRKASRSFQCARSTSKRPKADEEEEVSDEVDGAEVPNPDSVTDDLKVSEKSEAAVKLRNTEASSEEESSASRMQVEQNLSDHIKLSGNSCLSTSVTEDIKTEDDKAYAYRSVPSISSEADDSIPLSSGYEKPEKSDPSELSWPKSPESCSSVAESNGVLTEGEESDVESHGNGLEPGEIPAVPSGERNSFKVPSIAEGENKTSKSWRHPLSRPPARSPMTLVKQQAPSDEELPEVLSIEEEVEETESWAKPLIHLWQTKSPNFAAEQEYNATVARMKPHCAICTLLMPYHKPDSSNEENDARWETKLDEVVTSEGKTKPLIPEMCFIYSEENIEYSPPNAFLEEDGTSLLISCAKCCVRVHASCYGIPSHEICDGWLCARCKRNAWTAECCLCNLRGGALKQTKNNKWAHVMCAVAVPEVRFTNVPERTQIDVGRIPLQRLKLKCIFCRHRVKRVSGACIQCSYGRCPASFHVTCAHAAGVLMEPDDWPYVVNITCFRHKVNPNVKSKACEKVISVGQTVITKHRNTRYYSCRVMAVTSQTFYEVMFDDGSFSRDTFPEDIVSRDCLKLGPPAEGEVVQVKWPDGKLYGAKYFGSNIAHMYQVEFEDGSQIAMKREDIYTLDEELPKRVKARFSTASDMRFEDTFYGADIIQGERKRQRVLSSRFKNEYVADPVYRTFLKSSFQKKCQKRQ

[15] = alpha-synuclein stem-loop luciferase translation blockers – H4 neuroglioma cells, luminescence, confirmation (AID 1988); assay type: functional, cell-based
[16] = cytotoxicity in MITF-independent A375 cells – cell-based, CellTiter-Glo luminescence, dry powder, set 4, counter-screen for MITF inhibitor project, dose response (AID 624364); assay type: functional; conditions: A-375;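 further: A375 melanoma cells are MITF independent so this is a counter screen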
[17] = viability of PTEN-deleted HCT116 cells – cell-based, HCT116 PTEN knockout, dose response (AID 1047); assay type: functional;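 further: HCT116 colon tumor cells with PTEN knocked out; cells exposed to compound for 60 hours before readout; potency for loss of cell viability measured by luminescence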
[18] = biological target: T3, Microphthalmia-associated transcription factor (Homo sapiens, UniProt O75030); test: reducers of TRPM1 reporter luminescence, concentration series – cell-based, SK-MEL-5, cherry-picked, set 3, MITF inhibitor project, dose response (AID 493073); assay type: functional;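 further: SK-MEL-5 melanoma cells with luciferase driven by the MITF target TRPM1 promoter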
T3 sequence (O75030 whole entry): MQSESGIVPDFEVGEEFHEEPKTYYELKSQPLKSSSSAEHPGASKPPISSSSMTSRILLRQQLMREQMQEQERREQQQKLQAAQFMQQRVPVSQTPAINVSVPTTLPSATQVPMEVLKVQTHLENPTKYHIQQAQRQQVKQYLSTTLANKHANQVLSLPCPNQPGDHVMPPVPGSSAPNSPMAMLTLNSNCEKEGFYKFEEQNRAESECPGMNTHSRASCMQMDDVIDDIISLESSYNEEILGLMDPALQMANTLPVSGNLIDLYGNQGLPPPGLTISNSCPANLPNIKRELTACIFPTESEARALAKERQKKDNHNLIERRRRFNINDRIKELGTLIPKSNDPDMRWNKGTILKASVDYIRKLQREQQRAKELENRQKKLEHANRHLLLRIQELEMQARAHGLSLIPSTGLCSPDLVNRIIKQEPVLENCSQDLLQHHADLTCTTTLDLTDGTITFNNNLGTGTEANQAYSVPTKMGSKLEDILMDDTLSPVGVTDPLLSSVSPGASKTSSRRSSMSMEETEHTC

[19] = viability loss in MITF-independent A375 cells – cell-based, CellTiter-Glo luminescence, dry powder, set 2, counter-screen for MITF inhibitor project, dose response (AID 624489); assay type: functional; conditions: A-375;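 further: actives are compounds lowering A375 viability meaning general cytotoxicity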
[20] = HEK-293T viability loss after treatment – luminescence, T-cell screen hits, cytotoxicity control for TCR NF-kB inhibitor project, dose response (AID 489026); assay type: functional, cell-based;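 further: cells exposed to compound about 14 hours before the viability readout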
[21] = viability of HCT116 lacking mutant beta-catenin – cell-based, human colon tumor, dose response (AID 1045); assay type: functional;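 further: HCT116 colon tumor cells with beta catenin knocked out; cells exposed to compound for 60 hours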
[22] = luciferase reporter signal suppression in cells – H4 neuroglioma cells, luminescence, dose response (AID 1990); assay type: functional, cell-based
[23] = Luminescence Cell-Based Dose Response HTS to Identify Inhibitors of 5'UTR Stem-Loop Driven Prion Protein mRNA Translation in H4 Neuroglioblastoma Cells. [Related pubchem assays: 1827 (Project Summary), 1813 (Primary HTS)]; assay type: functional

With `O=S(=O)(NCc1ccncc1)c1ccc2c(c1)OCCO2` the AC50 [1] was 125 nM (active) and 167 nM (active) and the AC50 [2] was > 70 µM (inactive).
With `COC(=O)c1cc(I)cnc1N1CCC(NC2CCCCC2)CC1` the IC50 [3] was 2.5 µM (active) and the IC50 [4] was 0.479 µM (active).
In the case of `COc1ccc(-c2nnc(NC(=O)c3ccc(S(=O)(=O)N4CCC(C)CC4)cc3)o2)cc1`, the AC50 [5] was > 52 µM (inactive) and the AC50 [6] was > 52 µM (inactive).
In the case of `CN1C(=O)c2cc(NC(=O)Nc3ccccc3F)ccc2OC[C@H]2O[C@@H](CC(=O)NCc3ccc(-c4ccccc4)cc3)CC[C@@H]21`, the IC50 [7] was > 122 µM (inactive), the IC50 [8] was > 69.5 µM (inactive) and the IC50 [9] was > 69.5 µM (inactive). For the same molecule, the IC50 [10] was > 122 µM (inactive).
In the case of `CC(=O)N(C)C1=C(N2CCOCC2)C(=O)c2ccccc2C1=O`, the AC50 [11] was 1.67 µM (active), the AC50 [12] was 51.3 µM (active) and the EC50 [13] was 38.4 µM (active). For the same molecule, the AC50 [14] was 31.2 µM (active), the EC50 [15] was 7.74 µM (active) and the AC50 [16] was 32.1 µM (active). The EC50 [17] was 1.91 µM (active), the AC50 [18] was 3.5 µM (active) and the AC50 [19] was 13.9 µM (active). The IC50 [20] was 4.03 µM (active), the EC50 [21] was 1.81 µM (active) and the EC50 [22] was 10.8 µM (active). The EC50 [23] was 11.7 µM (active).
